Results as given in ChEMBL document CHEMBL1201862, “PubChem BioAssay data set” (2004).
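Exposure lasted 48 hours, with cells grown in 96-well plates and compounds tested at five concentrations. GI50 is the concentration that inhibits growth by half.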 Calls of active or inactive are those of the source. No stated cut-off is given here; in the data, active = GI50 up to about 1.1 µM and inactive = higher.

Tests used:
Assay in all cases: NCI-60 cell line screen, 48 h
[1] = tested on: 786-0
[2] = tested on: A498
[3] = tested on: A549
[4] = tested on: ACHN
[5] = tested on: COLO 205
[6] = tested on: EKVX
[7] = tested on: HOP-62
[8] = tested on: HT-29
[9] = tested on: MDA-MB-231
[10] = tested on: MOLT-4
[11] = tested on: NCI-H23
[12] = tested on: NCI-H522
[13] = tested on: PC-3
[14] = tested on: RPMI-8226
[15] = tested on: RXF 393
[16] = tested on: SF-268
[17] = tested on: SK-MEL-5
[18] = tested on: SK-OV-3
[19] = tested on: UACC-257
[20] = tested on: UACC-62

Cc1cc(C)nc(NC(=O)COc2ccc(Cl)cc2)c1
GI50 [1]: > 100 µM (inactive)
GI50 [2]: > 100 µM (inactive)
GI50 [3]: > 100 µM (inactive)
GI50 [4]: > 100 µM (inactive)
GI50 [5]: > 100 µM (inactive)
GI50 [6]: > 100 µM (inactive)
GI50 [7]: > 100 µM (inactive)
GI50 [8]: > 100 µM (inactive)
GI50 [9]: > 100 µM (inactive)
GI50 [10]: 56.6 µM (inactive)
GI50 [11]: > 100 µM (inactive)
GI50 [12]: 84.5 µM (inactive)
GI50 [13]: > 100 µM (inactive)
GI50 [14]: 74.5 µM (inactive)
GI50 [15]: 71.8 µM (inactive)
GI50 [16]: > 100 µM (inactive)
GI50 [17]: > 100 µM (inactive)
GI50 [18]: > 100 µM (inactive)
GI50 [19]: > 100 µM (inactive)
GI50 [20]: > 100 µM (inactive)

S=C1c2ccc(Cl)cc2-n2cnnc2C2CSCN12 (configuration not stated)
GI50 [1]: > 100 µM (inactive)
GI50 [2]: > 100 µM (inactive)
GI50 [3]: > 100 µM (inactive)
GI50 [4]: > 100 µM (inactive)
GI50 [5]: > 100 µM (inactive)
GI50 [6]: > 100 µM (inactive)
GI50 [7]: > 100 µM (inactive)
GI50 [8]: > 100 µM (inactive)
GI50 [9]: > 100 µM (inactive)
GI50 [10]: > 100 µM (inactive)
GI50 [12]: > 100 µM (inactive)
GI50 [13]: > 100 µM (inactive)
GI50 [14]: > 100 µM (inactive)
GI50 [15]: > 100 µM (inactive)
GI50 [16]: > 100 µM (inactive)
GI50 [17]: > 100 µM (inactive)
GI50 [18]: > 100 µM (inactive)
GI50 [19]: > 100 µM (inactive)
GI50 [20]: > 100 µM (inactive)

CN(CCNC(=O)c1cn(C)c2c1ccc1cc(Cl)c(Cl)cc12)CCNC(=O)c1cn(C)c2c1ccc1cc(Cl)c(Cl)cc12
GI50 [1]: 1.65 µM (inactive)
GI50 [2]: 3.82 µM (inactive)
GI50 [3]: 1.82 µM (inactive)
GI50 [4]: 1.92 µM (inactive)
GI50 [5]: 1.64 µM (inactive)
GI50 [6]: 2.7 µM (inactive)
GI50 [7]: 1.79 µM (inactive)
GI50 [8]: 1.75 µM (inactive)
GI50 [9]: 1.75 µM (inactive)
GI50 [10]: 0.5 µM (active)
GI50 [11]: 5.22 µM (inactive)
GI50 [12]: 1.97 µM (inactive)
GI50 [13]: 1.7 µM (inactive)
GI50 [14]: 2.65 µM (inactive)
GI50 [15]: 1.42 µM (inactive)
GI50 [16]: 2.75 µM (inactive)
GI50 [17]: 12.5 µM (inactive)
GI50 [18]: 2.03 µM (inactive)
GI50 [19]: 2.41 µM (inactive)
GI50 [20]: 1.95 µM (inactive)

CN(C)c1ccc(/N=N/c2ccccn2)cc1
GI50 [1]: 49 µM (inactive)
GI50 [2]: 22.1 µM (inactive)
GI50 [3]: 19.8 µM (inactive)
GI50 [4]: 31.8 µM (inactive)
GI50 [5]: 6.58 µM (inactive)
GI50 [6]: 11.9 µM (inactive)
GI50 [7]: 71 µM (inactive)
GI50 [8]: 11.1 µM (inactive)
GI50 [9]: 20.8 µM (inactive)
GI50 [10]: 4.17 µM (inactive)
GI50 [11]: 14.2 µM (inactive)
GI50 [12]: 38.7 µM (inactive)
GI50 [13]: 3.97 µM (inactive)
GI50 [14]: 11.3 µM (inactive)
GI50 [15]: > 100 µM (inactive)
GI50 [16]: 51.2 µM (inactive)
GI50 [17]: 15.4 µM (inactive)
GI50 [18]: 38.7 µM (inactive)
GI50 [19]: 3.89 µM (inactive)
GI50 [20]: 33.4 µM (inactive)

O=c1c2cccnc2cc(-c2ccccc2)n1CCO
GI50 [1]: > 100 µM (inactive)
GI50 [2]: > 100 µM (inactive)
GI50 [3]: > 100 µM (inactive)
GI50 [4]: > 100 µM (inactive)
GI50 [5]: > 100 µM (inactive)
GI50 [6]: > 100 µM (inactive)
GI50 [7]: > 100 µM (inactive)
GI50 [8]: > 100 µM (inactive)
GI50 [9]: > 100 µM (inactive)
GI50 [10]: > 100 µM (inactive)
GI50 [11]: > 100 µM (inactive)
GI50 [12]: > 100 µM (inactive)
GI50 [13]: > 100 µM (inactive)
GI50 [14]: > 100 µM (inactive)
GI50 [15]: > 100 µM (inactive)
GI50 [16]: 59.2 µM (inactive)
GI50 [17]: > 100 µM (inactive)
GI50 [18]: > 100 µM (inactive)
GI50 [19]: > 100 µM (inactive)
GI50 [20]: > 100 µM (inactive)

COc1ccc(-c2cc(-c3ccco3)c(C#N)c(=S)n2C2OC(CO)C(O)C(O)C2O)cc1 (configuration not stated)
GI50 [1]: > 100 µM (inactive)
GI50 [2]: > 100 µM (inactive)
GI50 [3]: > 100 µM (inactive)
GI50 [4]: > 100 µM (inactive)
GI50 [5]: > 100 µM (inactive)
GI50 [6]: > 100 µM (inactive)
GI50 [7]: > 100 µM (inactive)
GI50 [8]: > 100 µM (inactive)
GI50 [9]: 36.2 µM (inactive)
GI50 [10]: > 100 µM (inactive)
GI50 [11]: > 100 µM (inactive)
GI50 [12]: > 100 µM (inactive)
GI50 [13]: > 100 µM (inactive)
GI50 [14]: > 100 µM (inactive)
GI50 [15]: > 100 µM (inactive)
GI50 [16]: > 100 µM (inactive)
GI50 [17]: 44.7 µM (inactive)
GI50 [18]: 1.57 µM (inactive)
GI50 [19]: > 100 µM (inactive)

CNC(=O)Nc1nc2cc([N+](=O)[O-])ccc2[nH]1
GI50 [1]: > 100 µM (inactive)
GI50 [2]: > 100 µM (inactive)
GI50 [3]: > 100 µM (inactive)
GI50 [4]: > 100 µM (inactive)
GI50 [5]: > 100 µM (inactive)
GI50 [6]: > 100 µM (inactive)
GI50 [7]: > 100 µM (inactive)
GI50 [8]: > 100 µM (inactive)
GI50 [9]: > 100 µM (inactive)
GI50 [10]: > 100 µM (inactive)
GI50 [11]: > 100 µM (inactive)
GI50 [12]: 44.1 µM (inactive)
GI50 [13]: > 100 µM (inactive)
GI50 [14]: > 100 µM (inactive)
GI50 [15]: > 100 µM (inactive)
GI50 [16]: > 100 µM (inactive)
GI50 [17]: > 100 µM (inactive)
GI50 [18]: > 100 µM (inactive)
GI50 [19]: > 100 µM (inactive)

CN(C)CCCN1C(=S)N(CCCN(C)C)c2c3ccccc3nc3c([N+](=O)[O-])ccc1c23
GI50 [1]: 4.82 µM (inactive)
GI50 [2]: 7.71 µM (inactive)
GI50 [3]: 5.41 µM (inactive)
GI50 [4]: 4.06 µM (inactive)
GI50 [5]: 1.71 µM (inactive)
GI50 [6]: 5.5 µM (inactive)
GI50 [7]: 8.95 µM (inactive)
GI50 [8]: 2.94 µM (inactive)
GI50 [9]: 10.4 µM (inactive)
GI50 [10]: 5.58 µM (inactive)
GI50 [11]: 9.08 µM (inactive)
GI50 [12]: 1.77 µM (inactive)
GI50 [13]: 5.83 µM (inactive)
GI50 [14]: 6.81 µM (inactive)
GI50 [15]: 5.08 µM (inactive)
GI50 [16]: 4.21 µM (inactive)
GI50 [17]: 4.55 µM (inactive)
GI50 [18]: 15.5 µM (inactive)
GI50 [19]: 6.01 µM (inactive)
GI50 [20]: 9.95 µM (inactive)

CC(C)=CCC/C(=C/CC/C(=C\CCc1ccoc1)C(=O)O)C(=O)O
GI50 [1]: > 100 µM (inactive)
GI50 [2]: > 100 µM (inactive)
GI50 [3]: > 100 µM (inactive)
GI50 [4]: > 100 µM (inactive)
GI50 [5]: > 100 µM (inactive)
GI50 [6]: > 100 µM (inactive)
GI50 [7]: > 100 µM (inactive)
GI50 [8]: > 100 µM (inactive)
GI50 [9]: > 100 µM (inactive)
GI50 [10]: > 100 µM (inactive)
GI50 [11]: > 100 µM (inactive)
GI50 [12]: > 100 µM (inactive)
GI50 [13]: > 100 µM (inactive)
GI50 [14]: > 100 µM (inactive)
GI50 [15]: > 100 µM (inactive)
GI50 [16]: > 100 µM (inactive)
GI50 [17]: > 100 µM (inactive)
GI50 [18]: > 100 µM (inactive)
GI50 [19]: > 100 µM (inactive)
GI50 [20]: > 100 µM (inactive)

CC1=C(N2CC2)C(=O)c2nc3n(c2C1=O)CCC3OC(=O)CCl (configuration not stated)
GI50 [1]: 0.052 µM (active)
GI50 [2]: 0.061 µM (active)
GI50 [3]: 0.0593 µM (active)
GI50 [4]: 0.047 µM (active)
GI50 [5]: 0.128 µM (active)
GI50 [6]: 0.217 µM (active)
GI50 [7]: 0.0532 µM (active)
GI50 [8]: 0.0902 µM (active)
GI50 [9]: 1.91 µM (inactive)
GI50 [10]: 0.753 µM (active)
GI50 [11]: 0.0358 µM (active)
GI50 [12]: 0.0274 µM (active)
GI50 [13]: 0.0214 µM (active)
GI50 [14]: 0.0955 µM (active)
GI50 [15]: 0.0338 µM (active)
GI50 [16]: 0.0498 µM (active)
GI50 [17]: 0.0428 µM (active)
GI50 [18]: 0.0705 µM (active)
GI50 [19]: 0.0883 µM (active)
GI50 [20]: 0.0356 µM (active)
